In US20240002391A1, “4-ALKOXYPYRROLO[2,1-F][1,2,4]TRIAZINES AND PREPARATION AND USES THEREOF” (BioSplice Therapeutics, Inc., priority 2022, published 2024) one finds IC50 and EC50 data, which are given here for 22 compounds.

Assay [1] concerns the target recombinant DYRK1A kinase (Homo sapiens (Human), UniProt Q13627). As to the kind of experiment: DYRK1A kinase assay (Ser/Thr 18 peptide Z-lyte FRET). The assay is classed as biochemical. The settings on record: DYRK1A kinase activity, Z-lyte Ser/Thr 18 peptide, 15 μM ATP; method text calls the value IC50; read-out: EC50 (the source's name). Summed up: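 Recombinant enzyme (0.25 μg/mL final) was incubated with 15 μM ATP, 4 μM Ser/Thr 18 peptide and compound (11-point 1:3 series from 10 μM) for 1 h at room temperature, in duplicate. Development reagent was added for 1 h, and coumarin/fluorescein emission ratio gave % phosphorylation; IC50 by non-linear regression.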

Assay [2] has as its system Tau phosphorylation at Thr212 (pThr212) in HEK293T cells transfected with DYRK1A and MAPT. As to the kind of experiment: Tau phosphorylation phosphoTau (Thr212) AlphaLISA assay in HEK293T cells transfected with DYRK1A and MAPT. The assay is classed as cell-based. Conditions: HEK-293T, HEK293T cells transiently transfected with human DYRK1A and MAPT, compound treatment 18-24 hours, read-out: pTau (Thr212) EC50. As to the method: Representative compounds were screened using the assay procedure for tau phosphorylation activity described below.
HEK293T cells (ATCC, CRL3216) cultured in DMEM (Thermo Fisher Scientific, 10566024) supplemented with 10% FBS (Coming, 35-011—CV) and Penicillin/Streptomycin (Thermo Fisher Scientific, 15140163) were seeded in a 75 cm^2 flask at 8.1×10^6 cells/flask. The HEK293T cells were then transiently transfected with 5 μg DYRK1A (NM_001396) human untagged clone (OriGene, SC314641) and 2.5 μg MAPT (441 a.a. Tau gene) (NM_005910) human untagged clone (OriGene, TP313312) using Lipofectamine 3000 (Thermo Fisher Scientific, L30000015) and incubated for 20-30 hours in a humidified incubator at 37° C. and 5% CO^2. Post-incubation, HEK293T cells transfected with the DYRK1A and MAPT expression vectors were harvested and seeded in BioCoat poly-D lysine coated 96-well plates (Coming, 354461) at 3×10^4 cells/well.
The above synthesized compounds were screened using the cell assay procedure to assess decreased Tau phosphorylation at Thr212 (pThr212) described below.
Each compound was dissolved in DMSO (Sigma-Aldrich, D8418-100 mL) as a 10 mM stock. 10 mM stocks were serially diluted 1:3, 10-point dose-response curve and added to the cells with a final concentration ranging from 20 μM to 1.1 nM. Cells were treated with compounds in duplicate and incubated for 18-24 hours in a humidified incubator at 37° C. and 5% CO^2.
Following the overnight compound treatment, cells were lysed with 1X Alpha Surefire Ultra Lysis Buffer (Perkin Elmer, ALSU-LB-100ML) complemented with 1X Halt Phosphatase Inhibitor Cocktail (Thermo Fisher Scientific, 78427) and 1X Halt Protease Inhibitor Cocktail (Thermo Fisher Scientific, 78438). Lysates were spun down at 12,000 g for 10 min to remove any cellular debris and 5 μL of lysates were dispensed into a 384-well Opti-Plate (Perkin Elmer, 6007290) for the measurement of Tau phosphorylation in the phosphoTau (Thr212) AlphaLISA assay. Donor antibody, biotinylated HT7Tau (Thermo Fisher Scientific, MN1000B), and acceptor antibody, pThr212Tau (Thermo Fisher Scientific, 44740G) were both added to the cell lysates at a final concentration of 3 nM and incubated for 1 hour at room temperature. Following incubation of the lysates with the donor and acceptor antibodies, anti-rabbit IgG(Fc specific) AlphaLISA acceptor beads (Perkin Elmer, AL104C) were added at a 10 ug/mL final concentration and incubated for 1 hour at room temperature protected from light. Lastly, AlphaScreen streptavidin donor beads (PerkinElmer, 6760002) were added at 40 ug/mL final concentration and incubated for 1 hour at room temperature protected from light. Plates were read at […] on the EnVision Multilabel Plate Reader (Perkin Elmer). The phospho-Tau (Thr212) AlphaLISA signal was used to plot, draw the curve fitting, and determine each compound's EC50 in Prism (GraphPad).
Background: Alpha assays give light when donor and acceptor beads are brought close together.

In general, EC50 refers to the midpoint of the concentration-response curve.

Turning to `COc1nc(N[C@H]2CC[C@@](C)(O)CC2)nn2ccc(-c3cnc4nc(C)n(CC(F)F)c4c3)c12` [Compound 1, cis-4-((5-(1-(2,2-Difluoroethyl)-2-methyl-1H-imidazo[4,5-b]pyridin-6-yl)-4-methoxypyrrolo[2,1-f][1,2,4]triazin-2-yl)amino)-1-methylcyclohexan-1-ol], in assay [1], the IC50 came to 22.4 nM. Moreover, the EC50 in assay [2] stood at 21.6 nM.

In the case of `COc1nc(N[C@H]2CC[C@](C)(O)CC2)nn2ccc(-c3ccc4nnn(C)c4c3)c12` [Compound 3, trans-4-((4-Methoxy-5-(1-methyl-1H-benzo[d][1,2,3]triazol-6-yl)pyrrolo[2,1-f][1,2,4]triazin-2-yl)amino)-1-methylcyclohexan-1-ol], in assay [1], the IC50 came to 1.5 nM. In addition, in assay [2], the EC50 is 197 nM.

`COc1nc(N[C@H]2CC[C@](C)(O)CC2)nn2ccc(-c3ccn4nccc4c3)c12` [Compound 20, trans-4-((4-Methoxy-5-(pyrazolo[1,5-a]pyridin-5-yl)pyrrolo[2,1-f][1,2,4]triazin-2-yl)amino)-1-methylcyclohexan-1-ol]: the IC50 in assay [1] worked out at 3.4 nM. Moreover, the EC50 in assay [2] was determined as 107 nM.

Take `COc1nc(N[C@H]2C[C@](C)(O)C2)nn2ccc(-c3ccc4nccn4c3)c12` [Compound 44, trans-3-((5-(Imidazo[1,2-a]pyridin-6-yl)-4-methoxypyrrolo[2,1-f][1,2,4]triazin-2-yl)amino)-1-methylcyclobutan-1-ol]: the EC50 in assay [2] came to 48.2 nM.

Consider `COc1nc(N[C@H]2CC[C@H](NC(C)=O)CC2)nn2ccc(-c3ccc4nccn4c3)c12` [Compound 54, N-(trans-4-((5-(Imidazo[1,2-a]pyridin-6-yl)-4-methoxypyrrolo[2,1-f][1,2,4]triazin-2-yl)amino)cyclohexyl)acetamide], for which, in assay [1], the IC50 was found to be 1.2 nM. The EC50 in assay [2] came to 25.7 nM.

Consider `COc1nc(N[C@H]2CC[C@](C)(O)CC2)nn2ccc(-c3ccc4nccn4c3)c12` [Compound 56, trans-4-((5-(Imidazo[1,2-a]pyridin-6-yl)-4-methoxypyrrolo[2,1-f][1,2,4]triazin-2-yl)amino)-1-methylcyclohexan-1-ol], for which the IC50 in assay [1] is 1.3 nM. The EC50 in assay [2] was 35.7 nM.

As for `COc1nc(N[C@H]2C[C@](C)(NC(C)=O)C2)nn2ccc(-c3ccc4ncnn4c3)c12` [Compound 192, N-(trans-3-((5-([1,2,4]Triazolo[1,5-a]pyridin-6-yl)-4-methoxypyrrolo[2,1-f][1,2,4]triazin-2-yl)amino)-1-methylcyclobutyl)acetamide], the IC50 in assay [1] amounted to 0.9 nM. The EC50 in assay [2] is 18.1 nM.

Take `COc1nc(N[C@H]2CC[C@](C)(O)CC2)nn2ccc(-c3ccc4ncnn4c3)c12` [Compound 194, trans-4-((5-([1,2,4]Triazolo[1,5-a]pyridin-6-yl)-4-methoxypyrrolo[2,1-f][1,2,4]triazin-2-yl)amino)-1-methylcyclohexan-1-ol]: the IC50 in assay [1] amounted to 2.2 nM. In assay [2], the EC50 was 107 nM.

For the compound `COc1nc(N[C@H]2C[C@](C)(O)C2)nn2ccc(-c3ccc4nnn(C)c4c3)c12` [Compound 200, trans-3-((4-Methoxy-5-(1-methyl-1H-benzo[d][1,2,3]triazol-6-yl)pyrrolo[2,1-f][1,2,4]triazin-2-yl)amino)-1-methylcyclobutan-1-ol], in assay [1], the IC50 came out at 3.8 nM. In addition, the EC50 in assay [2] turned out to be 130 nM.

`CNC(=O)[C@]1(C)C[C@@H](Nc2nc(OC)c3c(-c4ccc5nnn(C)c5c4)ccn3n2)C1` [Compound 210, trans-3-((4-Methoxy-5-(1-methyl-1H-benzo[d][1,2,3]triazol-6-yl)pyrrolo[2,1-f][1,2,4]triazin-2-yl)amino)-N,1-dimethylcyclobutane-1-carboxamide]: the IC50 in assay [1] worked out at 1.5 nM. For the same compound, in assay [2], the 50% effective concentration (EC50) is 19.7 nM.

For `COc1nc(N[C@H]2CC[C@](C)(O)CC2)nn2ccc(-c3cnc4nccn4c3)c12` [Compound 257, trans-4-((5-(Imidazo[1,2-a]pyrimidin-6-yl)-4-methoxypyrrolo[2,1-f][1,2,4]triazin-2-yl)amino)-1-methylcyclohexan-1-ol], the IC50 in assay [1] is 0.4 nM. In addition, in assay [2], the EC50 amounted to 15.1 nM.

As to `CC[C@]1(O)CC[C@H](Nc2nc(OC)c3c(-c4cnc5nccn5c4)ccn3n2)CC1` [Compound 258, trans-1-Ethyl-4-((5-(imidazo[1,2-a]pyrimidin-6-yl)-4-methoxypyrrolo[2,1-f][1,2,4]triazin-2-yl)amino)cyclohexan-1-ol], the IC50 in assay [1] came out at 0.8 nM. The EC50 in assay [2] stood at 8.9 nM.

In the case of `COc1nc(NC2CC3(COC3)C2)nn2ccc(-c3cnc4nccn4c3)c12` [Compound 272, 5-(Imidazo[1,2-a]pyrimidin-6-yl)-4-methoxy-N-(2-oxaspiro[3.3]heptan-6-yl)pyrrolo[2,1-f][1,2,4]triazin-2-amine], in assay [1], the IC50 was determined as 1.3 nM. Besides, the EC50 in assay [2] was 13.4 nM.

For `COc1nc(NC2CCC3(CC2)COC3)nn2ccc(-c3cnc4nccn4c3)c12` [Compound 276, 5-(Imidazo[1,2-a]pyrimidin-6-yl)-4-methoxy-N-(2-oxaspiro[3.5]nonan-7-yl)pyrrolo[2,1-f][1,2,4]triazin-2-amine], the IC50 in assay [1] came out at 0.6 nM. The EC50 in assay [2] was 10.1 nM.

As to `COc1nc(NCC2(C)COC2)nn2ccc(-c3ccc4nnn(CC(F)F)c4c3)c12` [Compound 1144, 5-(1-(2,2-Difluoroethyl)-1H-benzo[d][1,2,3]triazol-6-yl)-4-methoxy-N-((3-methyloxetan-3-yl)methyl)pyrrolo[2,1-f][1,2,4]triazin-2-amine], in assay [1], the IC50 was 2 nM.

On to `COc1nc(N[C@H]2CCN(S(C)(=O)=O)C[C@H]2F)nn2ccc(-c3ccc4nnn(CC(F)F)c4c3)c12` [Compound 1145, 5-(1-(2,2-Difluoroethyl)-1H-benzo[d][1,2,3]triazol-6-yl)-N-((3R,4S)-3-fluoro-1-(methylsulfonyl)piperidin-4-yl)-4-methoxypyrrolo[2,1-f][1,2,4]triazin-2-amine], for which the IC50 in assay [1] is 1.4 nM.

`COc1nc(NCC(C)(C)C#N)nn2ccc(-c3cnc4nccn4c3)c12` [Compound 1146, 3-((5-(Imidazo[1,2-a]pyrimidin-6-yl)-4-methoxypyrrolo[2,1-f][1,2,4]triazin-2-yl)amino)-2,2-dimethylpropanenitrile]: the IC50 in assay [1] stood at 2 nM.

For `COc1nc(N[C@H](C)C2CCOCC2)nn2ccc(-c3cnc4nccn4c3)c12` [Compound 1147, (R)-5-(Imidazo[1,2-a]pyrimidin-6-yl)-4-methoxy-N-(1-(tetrahydro-2H-pyran-4-yl)ethyl)pyrrolo[2,1-f][1,2,4]triazin-2-amine], the IC50 in assay [1] was determined as 2.7 nM.

`COc1nc(NC2CCOC(C)(C)C2)nn2ccc(-c3cnc4nccn4c3)c12` (centres unmarked) [Compound 1148, N-(2,2-Dimethyltetrahydro-2H-pyran-4-yl)-5-(imidazo[1,2-a]pyrimidin-6-yl)-4-methoxypyrrolo[2,1-f][1,2,4]triazin-2-amine]: the IC50 in assay [1] stood at 0.6 nM.

Consider `COc1nc(N[C@@H]2CCOC[C@H]2F)nn2ccc(-c3cnc4nccn4c3)c12` [Compound 1149, N-((3S,4R)-3-Fluorotetrahydro-2H-pyran-4-yl)-5-(imidazo[1,2-a]pyrimidin-6-yl)-4-methoxypyrrolo[2,1-f][1,2,4]triazin-2-amine], for which the IC50 in assay [1] came to 4.5 nM.

Consider `COc1nc(NC2CC3CCC(C2)O3)nn2ccc(-c3cnc4nccn4c3)c12` (centres unmarked) [Compound 1150, N-(8-Oxabicyclo[3.2.1]octan-3-yl)-5-(imidazo[1,2-a]pyrimidin-6-yl)-4-methoxypyrrolo[2,1-f][1,2,4]triazin-2-amine], for which the IC50 in assay [1] worked out at 4.4 nM.

As for “N-(cis-4-((4-Methoxy-5-(quinolin-6-yl)pyrrolo[2,1-f][1,2,4]triazin-2-yl) amino)cyclohexyl)acetamide [Compound 1044]”, in assay [1], the IC50 worked out at 3.2 nM.
